# In publication PMC5078989, “Targeted inhibition of the COP9 signalosome for treatment of cancer” (Nature Communications, 2016):
# Test system: panel of cancer cell lines
# Assay: Cell viability (CellTiter-Glo) dose-response across cancer cell line panel;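 further: after 72 h compound incubation with CellTiter-Glo ATP readout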
# Type: cell-based, human
# Conditions: Homo sapiens
# From the text: Next, we explored the effect of CSN5 inhibition on the viability of cancer cells. To obtain a comprehensive picture, we generated dose–response curves with a CSN5 inhibitor across more than 500 cancer cell lines in a previously described standardized setting[47] (Supplementary Data 1).
# A standardized CellTiter-Glo Assay (Promega #G7570) based on the quantification of ATP was applied according to the manufacturer's protocol to measure the amount of viable cells in culture. In brief, cells were seeded into 384-well plates at optimal density for each cell line. After 4 h, compounds were added at different concentrations in growth medium and incubated for another 72 h in a humidifying chamber at 37 °C and 5% CO2. […] EC50 values were calculated from the plot of percentage of inhibition versus inhibitor concentration using the nonlinear regression analysis software Origin 7.5SR6 (OriginLab Corp.).
structure (smiles),measurement,setting,value
"COCc1ccccc1NCc1ccc([C@H]2[C@@H](O)CCCc3cncn32)c(-c2ccccc2Cl)c1 [CSN5i-2, (5S,6S)-5-(2′-chloro-5-(((2-(methoxymethyl)phenyl)amino)methyl)-[1,1′-biphenyl]-2-yl)-6,7,8,9-tetrahydro-5H-imidazo[1,5-a]azepin-6-ol]",EC50,MOG-G-CCM,3480 nM
same,EC50,"MOLM16, MOLM-16",133 nM
same,EC50,"MOLM-13, MOLM-13",262 nM
same,EC50,"MOLT-13, MOLT-13",217 nM
same,EC50,"MOLT-16, MOLT-16",341 nM
same,EC50,MSTO-211H,1350 nM
same,EC50,"MV4-11, MV-4-11",454 nM
same,EC50,Malme-3M,2060 nM
same,EC50,MeWo,472 nM
same,EC50,"Mono-Mac-1, MONO-MAC-1",747 nM
same,EC50,"NALM-6, NALM-6",209 nM
same,EC50,"NB1, NB-1",531 nM
same,EC50,"NB-4, NB-4",212 nM
same,EC50,"NCI-H23, NCI-H23",347 nM
same,EC50,"NCI-H28, NCI-H28",4700 nM
same,EC50,"NCI-H82, NCI-H82",5190 nM
same,EC50,"NCI-H146, NCI-H146",5250 nM
same,EC50,"NCI-H211, NCI-H211",1730 nM
same,EC50,"NCI-H322, NCI-H322",2540 nM
same,EC50,"NCI-H441, NCI-H441",3410 nM
same,EC50,"NCI-H460, NCI-H460",8610 nM
same,EC50,"NCI-H520, NCI-H520",10800 nM
same,EC50,"NCI-H647, NCI-H647",> 30000 nM
same,EC50,"NCI-H650, NCI-H650",> 30000 nM
same,EC50,"NCI-H661, NCI-H661",457 nM
same,EC50,"NCI-H747, NCI-H747",733 nM
same,EC50,"NCI-H810, NCI-H810",754 nM
same,EC50,"NCI-H838, NCI-H838",1000 nM
same,EC50,"NCI-H841, NCI-H841",1040 nM
same,EC50,"NCI-H1048, NCI-H1048",1920 nM
same,EC50,"NCI-H1155, NCI-H1155",653 nM
same,EC50,"NCI-H1299, NCI-H1299",1520 nM
same,EC50,"NCI-H1339, NCI-H1339",1130 nM
same,EC50,NCI-H1341,2010 nM
same,EC50,"NCI-H1355, NCI-H1355",1280 nM
same,EC50,"NCI-H1373, NCI-H1373",9300 nM
same,EC50,"NCI-H1437, NCI-H1437",17700 nM
same,EC50,"NCI-H1568, NCI-H1568",434 nM
same,EC50,"NCI-H1650, NCI-H1650",1820 nM
same,EC50,"NCI-H1666, NCI-H1666",11900 nM
same,EC50,"NCI-H1703, NCI-H1703",1640 nM
same,EC50,"NCI-H1755, NCI-H1755",967 nM
same,EC50,"NCI-H1792, NCI-H1792",2270 nM
same,EC50,"NCI-H1915, NCI-H1915",1270 nM
same,EC50,"NCI-H1975, NCI-H1975",2830 nM
same,EC50,"NCI-H2023, NCI-H2023",518 nM
same,EC50,"NCI-H2030, NCI-H2030",559 nM
same,EC50,"NCI-H2073, NCI-H2073",4450 nM
same,EC50,"NCI-H2087, NCI-H2087",1120 nM
same,EC50,"NCI-H2110, NCI-H2110",1760 nM
same,EC50,"NCI-H2122, NCI-H2122",893 nM
same,EC50,"NCI-H2126, NCI-H2126",> 30000 nM
same,EC50,"NCI-H2170, NCI-H2170",17500 nM
same,EC50,"NCI-H2171, NCI-H2171",1340 nM
same,EC50,"NCI-H2172, NCI-H2172",4890 nM
same,EC50,"NCI-H2228, NCI-H2228",4930 nM
same,EC50,"NCI-H2286, NCI-H2286",364 nM
same,EC50,"NCI-H2444, NCI-H2444",322 nM
same,EC50,"NCI-H2452, NCI-H2452",1940 nM
same,EC50,"NCI-H3255, NCI-H3255",> 30000 nM
same,EC50,"NCI-N87, NCI-N87",106 nM
same,EC50,NO36,2000 nM
same,EC50,"NOMO-1, NOMO-1",1640 nM
same,EC50,"NUGC-3, NUGC-3",6500 nM
same,EC50,"OCI-AML-3, OCI-AML3",1180 nM
same,EC50,"OCI-AML-5, OCI-AML5",677 nM
same,EC50,"OCI-Ly3, OCI-LY3",404 nM
same,EC50,"ONCO-DG-1, ONCO-DG-1",1110 nM
same,EC50,"OUMS-23, OUMS-23",747 nM
same,EC50,"OV56, OV56",401 nM
same,EC50,"OVCAR-3, NIH:OVCAR-3",523 nM
same,EC50,"OVCAR-4, OVCAR-4",1540 nM
same,EC50,OVISE,29100 nM
same,EC50,"P3HR-1, P3HR-1",560 nM
same,EC50,P12-Ichikawa,279 nM
same,EC50,"P31-FUJ, P31/FUJ",690 nM
same,EC50,"PANC-1, PANC-1",477 nM
same,EC50,"PANC-03-27, Panc 03.27",679 nM
same,EC50,"PC-3, PC-3",5890 nM
same,EC50,"PC-14, PC-14",8990 nM
same,EC50,PE/CA-PJ49,970 nM
same,EC50,"PF-382, PF-382",262 nM
same,EC50,"PK-1, PK-1",2710 nM
same,EC50,PK-45H,1860 nM
same,EC50,"PK-59, PK-59",1760 nM
same,EC50,"PL45, PL45",722 nM
same,EC50,"PL-21, PL-21",684 nM
same,EC50,"PLC-PRF-5, PLC/PRF/5",6990 nM
same,EC50,"PSN1, PSN1",1680 nM
same,EC50,"PaTu 8902, PA-TU-8902",2330 nM
same,EC50,"PaTu 8988t, PA-TU-8988T",5870 nM
same,EC50,"Panc 04.03, Panc 04.03",6710 nM
same,EC50,"Panc1005, Panc 10.05",308 nM
same,EC50,"QGP-1, QGP-1",> 30000 nM
same,EC50,"RCM-1, RCM-1",2700 nM
same,EC50,RD,1830 nM
same,EC50,RD-ES,839 nM
same,EC50,RERF-LC-AI,581 nM
same,EC50,RERF-LC-MS,1560 nM
same,EC50,RKN,1130 nM
same,EC50,RKO,2720 nM
same,EC50,RMUG-S,> 30000 nM
same,EC50,"RPMI 8402, RPMI-8402",633 nM
same,EC50,"RPMI-7951, RPMI-7951",16000 nM
same,EC50,"RT-112, RT-112",5730 nM
same,EC50,"RVH-421, RVH-421",2430 nM
same,EC50,"Rh41, RH-41",952 nM
same,EC50,"SCC-25, SCC-25",9930 nM
same,EC50,SCaBER,3550 nM
same,EC50,SEM,728 nM
same,EC50,SF8657,> 30000 nM
same,EC50,"SF-268, SF-268",1880 nM
same,EC50,"SH-4, SH-4",426 nM
same,EC50,SH-10-TC,1390 nM
same,EC50,SH-SY5Y,3480 nM
same,EC50,"SJRH30, SJRH30",1930 nM
same,EC50,"SK-CO-1, SK-CO-1",1220 nM
same,EC50,"SK-ES1, SK-ES-1",543 nM
same,EC50,"SK-HEP1, SK-HEP-1",979 nM
same,EC50,"SK-LU-1, SK-LU-1",3370 nM
same,EC50,"SK-MEL3, SK-MEL-3",20000 nM
same,EC50,"SK-MEL-2, SK-MEL-2",1940 nM
same,EC50,"SK-MEL-5, SK-MEL-5",1590 nM
same,EC50,"SK-MEL-28, SK-MEL-28",419 nM
same,EC50,"SK-MEL-30, SK-MEL-30",2280 nM
same,EC50,SK-MEL-31,5350 nM
same,EC50,SK-N-SH,2610 nM
same,EC50,"SK-OV-3, SK-OV-3",> 30000 nM
same,EC50,"SKM-1, SKM-1",487 nM
same,EC50,"SKNBE2, SK-N-BE(2)",455 nM
same,EC50,"SNB-19, SNB-19",2200 nM
same,EC50,SNG-M,370 nM
same,EC50,"SNU878, SNU-878",6720 nM
same,EC50,SNU-8,601 nM
same,EC50,"SNU-16, SNU-16",2080 nM
same,EC50,SNU-61,1990 nM
same,EC50,SNU-81,733 nM
same,EC50,SNU-175,806 nM
same,EC50,SNU-213,4010 nM
same,EC50,SNU-349,3550 nM
same,EC50,"SNU-387, SNU-387",666 nM
same,EC50,"SNU-398, SNU-398",277 nM
same,EC50,SNU-410,21100 nM
same,EC50,"SNU-423, SNU-423",1310 nM
